Measured values from patent publication US20230192691A1, “HETEROCYCLIC COMPOUNDS AS BTK INHIBITORS” (Beijing InnoCare Pharma Tech Co., Ltd., priority 2020, published 2023).

Legend:
[1] = target: T1, human-derived recombinant BTK protein (Homo sapiens, UniProt Q06187); experiment: BTK activity inhibition assay (HTRF in vitro kinase assay); format: biochemical; details: 40 μM ATP, 0.2 ng/μL BTK
T1 construct: purchased Carna Biosciences 08-180
Method: In vitro kinase assay was used to evaluate the effects of compounds of the present invention on BTK activity (Table 1).
(§1) By using the homogeneous time-resolved fluorescence (HTRF) kinase detection kit (Cisbio, catalog number 62TK0PEC), the enzymatic activity of BTK is determined by detecting the phosphorylation level of the substrate in the kinase reaction. The reaction buffer contains the enzyme reaction buffer (1×) from the kit, 5 mM MgCl2, 1 mM DTT, 10 nM SEB and 0.01% Tween-20; the kinase reaction solution contains human-derived recombinant BTK protein (Carna Biosciences, Catalog No. 08-180) diluted to 0.2 ng/μL with the reaction buffer; the substrate reaction solution contains biotin-labeled tyrosine kinase substrate diluted to 0.5 μM with the reaction buffer and 40 μM ATP; the detection buffer contains Eu^3+-labeled cage antibody diluted to 0.05 ng/μL and streptavidin-labeled XL665 antibody diluted to 31.25 nM with the reaction buffer; the test compound is dissolved and diluted to 100 μM with DMSO, followed by a 4-fold serial dilution with DMSO to the lowest concentration of 6.1 nM and finally 40-time dilution with the reaction buffer for each concentration point. If the IC50 value of the compound is very low, the initial concentration of the compound is reduced.
(§2) Add 4 μL test compound solution and 2 μL kinase reaction solution to a 384-well detection plate (Corning, catalog number 3674), mix well and incubate at room temperature for 15 minutes; add 4 μL substrate reaction solution and incubate for 50 minutes; add 10 μL detection buffer, mix well and stand for 60 minutes; detect signal at 620 nm and 665 nm using an Envision plate reader (Perkin Elmer). The signal value (absorbance at 665 nm/absorbance at 620 nm) is positively correlated with the degree of phosphorylation of the substrate, thereby detecting the kinase activity of BTK. In this experiment, the group without BTK is the negative control (100% inhibition) and the group with BTK but no compound is the positive control (0% inhibition). The inhibition curve is plotted and the corresponding IC50 value of the test compound is calculated using XLfit software (ID Business Solutions Ltd., UK).

[2] = target: T2, human recombinant BTK C481S protein (Homo sapiens, UniProt Q06187, C481S); experiment: BTK C481S activity inhibition assay (HTRF in vitro kinase assay); format: biochemical; details: 35 μM ATP, 1.5 ng/μL BTK C481S
T2 construct: made in house
Method: In vitro kinase assay was used to evaluate the effects of compounds of the present invention on BTK C481S activity (Table 1).
as §1, with “BTK C481S” for “BTK”, “nM SEB,” for “nM SEB”, “contains human” for “contains human-derived”, “protein (purified in-house)” for “protein (Carna Biosciences, Catalog No. 08-180)”, “to 1.5” for “to 0.2”, “and 35” for “and 40”
as §2, with “activity of BTK C481S. In this” for “activity of BTK. In this”, “with BTK C481 S but no” for “with BTK but no”, “XLfit software (TD Business Solutions” for “XLfit software (ID Business Solutions”

T2 sequence (Q06187 whole entry C481S): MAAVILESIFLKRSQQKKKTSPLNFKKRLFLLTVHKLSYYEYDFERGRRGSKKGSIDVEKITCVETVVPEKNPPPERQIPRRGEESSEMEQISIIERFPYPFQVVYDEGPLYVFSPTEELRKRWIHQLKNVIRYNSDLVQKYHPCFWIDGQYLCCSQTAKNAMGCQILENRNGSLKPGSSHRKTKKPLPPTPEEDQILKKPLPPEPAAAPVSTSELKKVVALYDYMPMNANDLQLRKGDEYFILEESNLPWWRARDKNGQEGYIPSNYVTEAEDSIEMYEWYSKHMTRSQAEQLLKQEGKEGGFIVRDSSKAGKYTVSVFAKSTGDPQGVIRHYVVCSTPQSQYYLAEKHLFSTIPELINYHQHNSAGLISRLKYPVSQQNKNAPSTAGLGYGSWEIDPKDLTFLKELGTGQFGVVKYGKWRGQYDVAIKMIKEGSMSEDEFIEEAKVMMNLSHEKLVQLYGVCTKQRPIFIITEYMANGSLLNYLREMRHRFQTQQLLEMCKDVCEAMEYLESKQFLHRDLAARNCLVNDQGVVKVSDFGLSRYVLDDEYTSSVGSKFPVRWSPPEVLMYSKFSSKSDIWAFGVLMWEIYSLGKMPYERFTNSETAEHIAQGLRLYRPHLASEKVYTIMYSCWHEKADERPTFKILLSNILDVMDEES
T1 sequence (Q06187 whole entry): as the sequence (Q06187 whole entry C481S) above, with S481C counted along it

| SMILES | IC50 [1] | IC50 [2] |
| --- | --- | --- |
| COC(=O)C12CC(c3nc(-c4ccc(CNC(=O)c5cc(F)ccc5OC)cc4)c4c(N)ncnn34)(C1)C2 [Compound 29, methyl 3-(4-amino-5-(4-((5-fluoro-2-methoxybenzamido)methyl)phenyl)imidazo[5,1-f][1,2,4]triazin-7-yl)bicyclo[1.1.1]pentane-1-carboxylate] | 1.2 nM | 2.1 nM |
| COc1ccc(C)nc1C(=O)NCc1ccc(-c2nc(C3CCCOC3)n3ccnc(N)c23)cc1 (stereo not drawn) [Compound 19, N-(4-(8-amino-3-(tetrahydro-2H-pyran-3-yl)imidazo[1,5-a]pyrazin-1-yl)benzyl)-3-methoxy-6-methylpicolinamide] | 212 nM | 201 nM |
| COc1ccc(F)cc1C(=O)NCc1ccc(-c2nc(C34CCC(C(=O)O)(CC3)C4)n3ccnc(N)c23)cc1 [Compound 40, 4-(8-amino-1-(4-((5-fluoro-2-methoxybenzamido)methyl)phenyl)imidazo[1,5-a]pyrazin-3-yl)bicyclo[2.2.1]heptane-1-carboxylic acid] | 0.4 nM | 1.1 nM |
| CNC(=O)[C@H]1CC[C@H](c2nc(-c3ccc(CNC(=O)c4cc(F)ccc4OC)cc3)c3c(N)nccn32)CC1 [Compound 23, N-(4-(8-amino-3-((1r,4r)-4-(methylcarbamoyl)cyclohexyl)imidazo[1,5-a]pyrazin-1-yl)benzyl)-5-fluoro-2-methoxybenzamide] | 1 nM | 3 nM |
| Nc1nccn2c(C3CCC(CO)OC3)nc(-c3ccc(CNC(=O)c4ccccn4)cc3)c12 (stereo not drawn) [Compound 9, N-(4-(8-amino-3-(6-(hydroxymethyl)tetrahydro-2H-pyran-3-yl)imidazo[1,5-a]pyrazin-1-yl)benzyl)picolinamide] | 718 nM | 498 nM |
| COc1ccc(F)cc1C(=O)NCc1ccc(-c2nc(N3CCC(CO)CC3)n3ccnc(N)c23)cc1 [Compound 6, N-(4-(8-amino-3-(4-(hydroxymethyl)piperidin-1-yl)imidazo[1,5-a]pyrazin-1-yl)benzyl)-5-fluoro-2-methoxybenzamide] | 4.6 nM | 3.3 nM |
| [2H]C([2H])([2H])Oc1ccc(F)cc1C(=O)NCc1ccc(-c2nc(C3CCCOC3)n3ccnc(N)c23)cc1 (stereo not drawn) [Compound 25, N-(4-(8-amino-3-(tetrahydro-2H-pyran-3-yl)imidazo[1,5-a]pyrazin-1-yl)benzyl)-5-fluoro-2-(methoxy-dz)benzamide] | 1.1 nM | 1.5 nM |
| COc1ccc(F)cc1C(=O)NCc1ccc(-c2nc([C@H]3CC[C@H](CO)CC3)n3ccnc(N)c23)cc1 [Compound 5, N-(4-(8-amino-3-((1r,4r)-4-(hydroxymethyl)cyclohexyl)imidazo[1,5-a]pyrazin-1-yl)benzyl)-5-fluoro-2-methoxybenzamide] | 4.6 nM | 2.6 nM |
| COc1ccc(F)cc1C(=O)NCc1ccc(-c2nc(C34CC(C(=O)O)(C3)C4)n3ncnc(N)c23)cc1 [Compound 31, 3-(4-amino-5-(4-((5-fluoro-2-methoxybenzamido)methyl)phenyl)imidazo[5,1-f][1,2,4]triazin-7-yl)bicyclo[1.1.1]pentane-1-carboxylic acid] | 0.6 nM | 3 nM |
| COc1ccc(F)cc1C(=O)NCc1ccc(-c2nc([C@]3(C)CC[C@](C)(C(=O)OC)CC3)n3ccnc(N)c23)cc1 [Compound 39, methyl (1s,4s)-4-(8-amino-1-(4-((5-fluoro-2-methoxybenzamido)methyl)phenyl)imidazo[1,5-a]pyrazin-3-yl)-1,4-dimethylcyclohexane-1-carboxylate] | 3.3 nM | 0.6 nM |
| COc1ccc(F)cc1C(=O)NCc1ccc(-c2nc(C3(C(F)(F)F)CC3)n3ccnc(N)c23)cc1 [Compound 42, N-(4-(8-amino-3-(1-(trifluoromethyl)cyclopropyl)imidazo[1,5-a]pyrazin-1-yl)benzyl)-5-fluoro-2-methoxybenzamide] | 1.7 nM | 4.3 nM |

Now from value to compound:

| IC50 [1] | IC50 [2] | SMILES |
| --- | --- | --- |
| 4 nM | 9.2 nM | COc1ccc(F)cc1C(=O)NCc1ccc(-n2c(=O)n(C3CCOCC3)c3ncnc(N)c32)cc1 [Compound 51, N-(4-(6-amino-8-oxo-9-(tetrahydro-2H-pyran-4-yl)-8,9-dihydro-7H-purin-7-yl)benzyl)-5-fluoro-2-methoxybenzamide] |
| 1.7 nM | 1.8 nM | COc1ccc(F)cc1C(=O)NCc1ccc(-c2nc(C3CCCOC3)n3ccnc(N)c23)cc1 (stereo not drawn) [Compound 21, N-(4-(8-amino-3-(tetrahydro-2H-pyran-3-yl)imidazo[1,5-a]pyrazin-1-yl)benzyl)-5-fluoro-2-methoxybenzamide] |
| 3.9 nM | 2.5 nM | COc1ccc(F)cc1C(=O)NCc1ccc(-c2nc([C@@H]3CCN(C(=O)C4CC4)C3)n3ncnc(N)c23)cc1 [Compound 24, (R)-N-(4-(4-amino-7-(1-(cyclopropanecarbonyl)pyrrolidin-3-yl)imidazo[5,1-f][1,2,4]triazin-5-yl)benzyl)-5-fluoro-2-methoxybenzamide] |
| 9.4 nM | 2.6 nM | COc1ccc(F)cc1C(=O)NCc1ccc(-c2nc(N3CCOCC3)n3ncnc(N)c23)cc1 [Compound 45, N-(4-(4-amino-7-morpholinoimidazo[5,1-f][1,2,4]triazin-5-yl)benzyl)-5-fluoro-2-methoxybenzamide] |
| 1.2 nM | 8.2 nM | COc1ccc(F)cc1C(=O)NCc1ccc(-n2c(=O)n(C34CCC(C(=O)O)(CC3)CC4)c3ncnc(N)c32)cc1 [Compound 48, 4-(6-amino-7-(4-((5-fluoro-2-methoxybenzamido)methyl)phenyl)-8-oxo-7,8-dihydro-9H-purin-9-yl)bicyclo[2.2.2]octane-1-carboxylic acid] |
| 2.3 nM | 3 nM | COc1ccc(F)cc1C(=O)NCc1ccc(-c2nn([C@H]3CC[C@H](O)CC3)c3ccnc(N)c23)cc1 [Compound 4, N-(4-(4-amino-1-((1r,4r)-4-hydroxycyclohexyl)-1H-pyrazolo[4,3-c]pyridin-3-yl)benzyl)-5-fluoro-2-methoxybenzamide] |
| 7.2 nM | 30 nM | COc1ccc(F)cc1C(=O)NCc1ccc(-n2c(=O)n(C3CCOCC3)c3ccnc(N)c32)cc1 [Compound 52, N-(4-(4-amino-2-oxo-1-(tetrahydro-2H-pyran-4-yl)-1,2-dihydro-3H-imidazo[4,5-c]pyridin-3-yl)benzyl)-5-fluoro-2-methoxybenzamide] |
| 17 nM | 3.5 nM | COc1ccc(F)cc1C(=O)NCc1ccc(-c2nn(C3CCOCC3)c3ccnc(N)c23)cc1 [Compound 1, N-(4-(4-amino-1-(tetrahydro-2H-pyran-4-yl)-1H-pyrazolo[4,3-c]pyridin-3-yl)benzyl)-5-fluoro-2-methoxybenzamide] |
| 3.2 nM | 4.6 nM | COc1ccc(F)cc1C(=O)NCc1ccc(-c2nn([C@H]3CC[C@@H](O)CC3)c3ccnc(N)c23)cc1 [Compound 3, N-(4-(4-amino-1-((1s,4s)-4-hydroxycyclohexyl)-1H-pyrazolo[4,3-c]pyridin-3-yl)benzyl)-5-fluoro-2-methoxybenzamide] |
| 2.4 nM | 20 nM | COc1ccc(F)cc1C(=O)NCc1ccc(-n2c(=O)n([C@H]3CC[C@H](CO)CC3)c3ncnc(N)c32)cc1 [Compound 50, N-(4-(6-amino-9-((1r,4r)-4-(hydroxymethyl)cyclohexyl)-8-oxo-8,9-dihydro-7H-purin-7-yl)benzyl)-5-fluoro-2-methoxybenzamide] |
